Laboratory results: patent publication US20160326142A1, “PYRAZOLE CARBOXAMIDE COMPOUNDS, COMPOSITIONS AND METHODS OF USE” (Genentech, Inc., priority 2012, published 2016)

Each compound was assayed against T1, ITK (Homo sapiens, UniProt Q08881) (assay: ITK enzyme assay (Caliper or LCMS peptide phosphorylation)). Details: purified ITK (Invitrogen PV3875), 20 μM ATP, Ki by Morrison's quadratic equation.
T1 construct: purchased Invitrogen PV3875
T1 sequence (Q08881 1-620): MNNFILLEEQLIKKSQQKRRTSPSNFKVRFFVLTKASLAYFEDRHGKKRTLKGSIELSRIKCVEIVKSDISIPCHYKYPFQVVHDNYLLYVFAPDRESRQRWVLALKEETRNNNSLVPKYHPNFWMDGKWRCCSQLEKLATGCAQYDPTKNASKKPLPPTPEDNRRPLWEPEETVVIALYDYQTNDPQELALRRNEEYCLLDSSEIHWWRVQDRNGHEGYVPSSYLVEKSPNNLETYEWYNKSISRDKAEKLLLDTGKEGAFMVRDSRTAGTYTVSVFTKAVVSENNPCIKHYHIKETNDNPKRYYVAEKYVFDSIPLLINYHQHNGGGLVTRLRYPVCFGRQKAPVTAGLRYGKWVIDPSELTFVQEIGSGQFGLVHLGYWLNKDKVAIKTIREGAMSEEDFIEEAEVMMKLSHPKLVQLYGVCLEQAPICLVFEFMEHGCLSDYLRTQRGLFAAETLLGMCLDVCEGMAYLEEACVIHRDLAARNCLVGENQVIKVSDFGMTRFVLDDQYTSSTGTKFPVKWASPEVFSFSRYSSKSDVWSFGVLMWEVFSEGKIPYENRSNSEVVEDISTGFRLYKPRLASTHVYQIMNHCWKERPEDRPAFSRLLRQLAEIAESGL
Assay type: biochemical
Procedure, shortened: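 Purified human ITK peptide phosphorylation, quenched with EDTA (50 mM final) for Caliper LabChip separation or TCA (5% v/v final) for UPLC-MS/MS MRM quantification. Ki derived via Morrison tight-binding equation, corrected for competitive inhibition using ATP concentration relative to Km,app.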
With `CCC1(C)CCc2c(C(=O)Nc3cnn(Cc4ccccc4)c3)n[nH]c2C1` (single isomer, unassigned) [Example 56b, N-(1-benzyl-1H-pyrazol-4-yl)-6-ethyl-6-methyl-4,5,6,7-tetrahydro-1H-indazole-3-carboxamide] the Ki was 13 nM. `CC1(C)CCc2c(C(=O)Nc3cnn(C(CN4CCC4)c4ccccc4)c3)n[nH]c2C1` (single isomer, unassigned) [Example 57a, N-(1-(2-(azetidin-1-yl)-1-phenylethyl)-1H-pyrazol-4-yl)-6,6-dimethyl-4,5,6,7-tetrahydro-1H-indazole-3-carboxamide] showed a Ki of 2 nM. In the case of `CC1(C)CCc2c(C(=O)Nc3cnn(C(CN4CCC4)c4ccccc4)c3)n[nH]c2C1` (single isomer, unassigned) [Example 57b, N-(1-(2-(azetidin-1-yl)-1-phenylethyl)-1H-pyrazol-4-yl)-6,6-dimethyl-4,5,6,7-tetrahydro-1H-indazole-3-carboxamide], the Ki is reported as 12 nM. With `CN(CCC(c1ccccc1)n1cc(NC(=O)c2n[nH]c3c2CCC(C)(C)C3)cn1)C1COC1` (single isomer, unassigned) [Example 58a, 6,6-dimethyl-N-(1-(3-(methyl(oxetan-3-yl)amino)-1-phenylpropyl)-1H-pyrazol-4-yl)-4,5,6,7-tetrahydro-1H-indazole-3-carboxamide] the Ki was 7 nM. For `CN(CCC(c1ccccc1)n1cc(NC(=O)c2n[nH]c3c2CCC(C)(C)C3)cn1)C1COC1` (single isomer, unassigned) [Example 58b, 6,6-dimethyl-N-(1-(3-(methyl(oxetan-3-yl)amino)-1-phenylpropyl)-1H-pyrazol-4-yl)-4,5,6,7-tetrahydro-1H-indazole-3-carboxamide], the Ki was 0.6 nM. Work on `CN(CC(c1ccccc1)n1cc(NC(=O)c2n[nH]c3c2CCC(C)(C)C3)cn1)S(C)(=O)=O` (single isomer, unassigned) [Example 61a, 6,6-dimethyl-N-(1-(2-(N-methylmethylsulfonamido)-1-phenylethyl)-1H-pyrazol-4-yl)-4,5,6,7-tetrahydro-1H-indazole-3-carboxamide] yielded a Ki of 5 nM. Work on `CN(CC(c1ccccc1)n1cc(NC(=O)c2n[nH]c3c2CCC(C)(C)C3)cn1)S(C)(=O)=O` (single isomer, unassigned) [Example 61b, 6,6-dimethyl-N-(1-(2-(N-methylmethylsulfonamido)-1-phenylethyl)-1H-pyrazol-4-yl)-4,5,6,7-tetrahydro-1H-indazole-3-carboxamide] yielded a Ki of 1 nM. With `CC1(C)CCc2c(C(=O)Nc3cnn(C(CN4CCOCC4)c4ccccc4)c3)n[nH]c2C1` (single isomer, unassigned) [Example 62a, 6,6-dimethyl-N-(1-(2-morpholino-1-phenylethyl)-1H-pyrazol-4-yl)-4,5,6,7-tetrahydro-1H-indazole-3-carboxamide] the Ki was 3 nM. `CC1(C)CCc2c(C(=O)Nc3cnn(C(CN4CCOCC4)c4ccccc4)c3)n[nH]c2C1` (single isomer, unassigned) [Example 62b, 6,6-dimethyl-N-(1-(2-morpholino-1-phenylethyl)-1H-pyrazol-4-yl)-4,5,6,7-tetrahydro-1H-indazole-3-carboxamide] showed a Ki of 16 nM. `CC1(C)CCc2c(C(=O)Nc3cnn(C(c4ccccc4)C4CCN(CCF)CC4)c3)n[nH]c2C1` (single isomer, unassigned) [Example 63a, N-(1-((1-(2-fluoroethyl)piperidin-4-yl)(phenyl)methyl)-1H-pyrazol-4-yl)-6,6-dimethyl-4,5,6,7-tetrahydro-1H-indazole-3-carboxamide] was tested, and the Ki was 0.1 nM. `CC1(C)CCc2c(C(=O)Nc3cnn(C(c4ccccc4)C4CCN(CCF)CC4)c3)n[nH]c2C1` (single isomer, unassigned) [Example 63b, N-(1-((1-(2-fluoroethyl)piperidin-4-yl)(phenyl)methyl)-1H-pyrazol-4-yl)-6,6-dimethyl-4,5,6,7-tetrahydro-1H-indazole-3-carboxamide] gave a Ki of 1 nM. `CC1(C)CCc2c(C(=O)Nc3cnn(C(c4ccccc4)[C@@H]4CNCCO4)c3)n[nH]c2C1` (single isomer, unassigned) [Example 66a] was tested, and the Ki was 0.3 nM.
